Results from publication PMC2920492 (Journal of medicinal chemistry, 2010).

Tests used:
global H3K4me2 [1] = settings: P19 cell line; cited from earlier work
recombinant human LSD1 [2] = target: T1, recombinant human LSD1 (Homo sapiens, UniProt O60341); settings: 10 μM; cited from earlier work
global H3K4me2 [3] = settings: HCT116 cells, 48 hr exposure, increasing concentrations; cited from earlier work
global H3K4me1 [4] = settings: HCT116 cells, 48 hr exposure, increasing concentrations; cited from earlier work
global H3K9me2 = settings: HCT116 cells, 48 hr exposure, increasing concentrations; cited from earlier work
recombinant human LSD1 [5] = target: T1, recombinant human LSD1; format: biochemical; settings: read-out: reduction of LSD1 activity (inhibition), 10 μM
[6] = system: HCT116 human colon carcinoma; settings: compound alone; cited from earlier work
global H3K4me1 [7] = assay: Global H3K4me1 levels by quantitative Western blot in Calu-6 cells; format: cell-based, human; settings: 10 μM
global H3K4me2 [8] = assay: Global H3K4me2 levels by quantitative Western blot in Calu-6 cells; format: cell-based, human; settings: 10 μM
GATA4 = GATA4 mRNA re-expression by qPCR in Calu-6 cells; format: cell-based, human; settings: 5 and 10 μM, 24 h
SFRP2 = SFRP2 mRNA re-expression by qPCR in Calu-6 cells; format: cell-based, human; settings: 10 μM, 24 h
[9] = system: recombinant LSD1/CoRest complex; settings: cited from earlier work

In the case of `N[C@@H]1C[C@H]1c1ccccc1` (racemic) [tranylcypromine], the “global levels of H3K4me2” value (global H3K4me2 [1]) is given as “increase”.

In the case of `C/N=C(\NC)NCCCNCCCNCCCN/C(=N/C)NC.Cl` [Compound 1c], the “%LSD1 activity remaining” value (recombinant human LSD1 [2]) is given as 14.1 (from [ref. 25]) %, the “global H3K4me2” value (global H3K4me2 [3]) is given as “significant global increases” and the “global H3K4me1” value (global H3K4me1 [4]) is given as “significant global increases”. The “global H3K9me2 levels” value (global H3K9me2) was “not affecting”.

In the case of `Cl.N=C(NCCCNCCCCCCCNCCCNC(=N)NC(=N)NCCC(c1ccccc1)c1ccccc1)NC(=N)NCCC(c1ccccc1)c1ccccc1` [Compound 2d], the inhibition at 10 µM (recombinant human LSD1 [5]) is listed as 82.9%, the “global H3K4me2” value (global H3K4me2 [3]) is listed as “significant global increases” and the “global H3K4me1” value (global H3K4me1 [4]) is listed as “significant global increases”. For the same compound, the “global H3K9me2 levels” value (global H3K9me2) was “not affecting” and the “effect on tumor cell growth” value [6] was “little effect”.

In the case of `Cl.Cl.S=C(NCCCNCCCCCCCNCCCNC(=S)NCC(c1ccccc1)c1ccccc1)NCC(c1ccccc1)c1ccccc1` [Compound 25, 1,15-bis-{3-[1-(2,2-diphenylethyl)thioureado]}-4,12-diazapentadecane], the “global H3K4me1 level” value (global H3K4me1 [7]; 24 h) is reported as “significant increases”, the “global H3K4me1 level” value (global H3K4me1 [7]; 48 h) is reported as “most dramatic increases” and the “global H3K4me2 level” value (global H3K4me2 [8]; 24 h) is reported as “significant increases”. The “global H3K4me2 level” value (global H3K4me2 [8]; 48 h) was “most dramatic increases” and the “effect on GATA4 levels” value (GATA4) was “did not produce significant increases”.

In the case of `Cl.Cl.S=C(NCCCNCCCCNCCCNC(=S)NCC(c1ccccc1)c1ccccc1)NCC(c1ccccc1)c1ccccc1` [Compound 26, 1,12-bis-{3-[1-(2,2-diphenylethyl)thioureado]}-4,9-diazadodecane], the “global H3K4me1 level” value (global H3K4me1 [7]; 24 h) is reported as “significant increase”, the “global H3K4me1 level” value (global H3K4me1 [7]; 48 h) is reported as “increase” and the “global H3K4me2 level” value (global H3K4me2 [8]; 24 h) is reported as “decreased”. For the same compound, the “global H3K4me2 level” value (global H3K4me2 [8]; 48 h) was “reduction” and the “effect on GATA4 levels” value (GATA4) was “did not produce significant increases”.

In the case of `Cl.Cl.S=C(NCCCNCCCNCCCNC(=S)NCC(c1ccccc1)c1ccccc1)NCC(c1ccccc1)c1ccccc1` [Compound 27, 1,11-bis-{3-[1-(2,2-diphenylethyl)thioureado]}-4,8-diazaundecane], the “global H3K4me1 level” value (global H3K4me1 [7]; 24 h) is reported as “significant increases”, the “global H3K4me2 level” value (global H3K4me2 [8]; 24 h) is reported as “significant increases” and the “increase in SFRP2 expression” value (SFRP2) is reported as 4.8 fold.

In the case of `NNCCc1ccccc1` [phenelzine], the nucleosomal demethylation [9] is listed as “inactivate” and the “global levels of H3K4me2” value (global H3K4me2 [1]) is listed as “increase”.
